Measured values as given in patent US20240335444A1, “MODULATORS OF BCL6 PROTEOLYSIS AND ASSOCIATED METHODS OF USE” (Arvinas Operations, Inc., priority 2023, published 2024).

Legend:
BCL6 protein [1] = target: T1, BCL6 protein (Homo sapiens, UniProt P41182); assay: Tumor lysate BCL6 protein levels in SU-DHL-2 xenograft (western blotting); format: in vivo, mice; set-up: from tissue; host or cells: subcutaneous xenograft tumors of OCI-Ly1, OCI-Ly7, SU-DHL-2 or OCI-Ly10 cells in mice; details: 16-hours post-last dose
Protocol: (§1) Mice bearing subcutaneous tumors were orally (po) administered vehicle or Compound A at 3, 10, or 30 mg/kg bi-daily for 27 days (bid×27) or 30 mg/kg daily for 27 days (qd×27). Dosing began with tumors at an average of 180 mm^3. […] FIG. 9C depicts tumor lysate BCL6 protein levels 16-hours post-last dose analyzed by western blotting. Individual tumor BCL6 levels are shown in a scatter plot, mean is represented by the bar, determined by densitometry, normalized to GAPDH loading controls, and shown as a percentage of vehicle. Percent BCL6 degradation (%) relative to vehicle is shown above each arm. Statistical analyses were performed using 2-way ANOVA: p<0.0001 (****). Error bars represent standard error of the mean (±SEM).

[2] = Body weight of mice in the PDX models; format: in vivo, NOD/SCID or BALB/c Nude Mice; details: 30 mg/kg PO QD×21
Protocol: (§2) HuPrime® Lymphoma Xenograft Models in NOD/SCID or BALB/c Nude Mice, 4/group, were dosed orally (per os, PO) daily for 21 days (QD×21) and tumor measurements were acquired twice per week. […] Data points represent the mean per group and error bars the standard error of the mean.

DLBCL-derived cell lines = assay: Nine-day cell growth inhibition assay (CellTiter-Glo); format: cell-based; details: GCB lines OCI-Ly1, OCI-Ly7, SU-DHL-4, SU-DHL-6 and ABC lines SU-DHL-2, OCI-Ly10; 9 days; top dose 30 nM; concentration dependent
Protocol: Antiproliferative effects of Compound A on DLBCL-derived cell lines were tested. Nine-day cell growth inhibition assays were conducted using GCB lines OCI-Ly1, OCI-Ly7, SU-DHL-4 and SU-DHL-6 (FIG. 3A), and ABC lines SU-DHL-2 and OCI-Ly10 (FIG. 3B) dosed with a 7-point 3-fold serial dilution of Compound A at a top dose of 30 nM. On days 3 and 6-7, samples were split to new 48-well plates for re-treatment, and 20% to a 96-well plate to measure cell viability using CellTiter-Glo (CTG). Split cells in the 48-well plates were retreated and cultured out to day 9, when 20% of each sample was analyzed by CTG. Dose response was plotted as a percentage of vehicle (DMSO) control (FIG. 3A and FIG. 3B). Graphs are representative of at least two independent proliferation assays per cell line.

SU-DHL-2 = assay: Tumor growth of DLBCL cell line derived xenograft model SU-DHL-2; format: in vivo, mice; details: SU-DHL-2 xenograft, po 3, 10 or 30 mg/kg bid×27 or 30 mg/kg qd×27; dosing dependent
Protocol: as §1

LY6934 = assay: PDX model of DLBCL, ABC/GCB (LY6934); format: in vivo, NOD/SCID or BALB/c Nude Mice; details: 30 mg/kg PO QD×21, compared to vehicle
Protocol: as §2

LY12962 = assay: PDX model of NHL NOS (LY12962); format: in vivo, NOD/SCID or BALB/c Nude Mice; details: 30 mg/kg PO QD×21
Protocol: as §2

BCL6 protein [3] = target: T1, BCL6 protein; assay: BCL6 protein degradation in DLBCL cell lines measured by ELISA; format: cell-based; set-up: Degradation of BCL6 protein in DLBCL cell lines were measured by ELISA; endogenous in cells; host or cells: OCI-Ly1, Farage, SU-DHL-4, SU-DHL-6, OCI-Ly7, SU-DHL-2, OCI-Ly10
LY3148 = assay: PDX model of Burkitt's lymphoma (LY3148); format: in vivo, NOD/SCID or BALB/c Nude Mice; details: 30 mg/kg PO QD×21
Protocol: as §2

BCL6 protein [4] = target: T1, BCL6 protein; assay: Tumor lysate BCL6 protein levels in OCI-Ly10 xenograft (western blotting); format: in vivo, mice; set-up: from tissue; host or cells: subcutaneous xenograft tumors of OCI-Ly1, OCI-Ly7, SU-DHL-2 or OCI-Ly10 cells in mice; details: all dose levels, 16-hours post-last dose (FIG. 10C)
Protocol: as §1, with “28” for “27”, “(bid×28)” for “(bid×27)”, “(qd×28).” for “(qd×27).”, “190” for “180”, “10C” for “9C”, “ANOVA: p<0.05 (*),” for “ANOVA:”

LY2214 = assay: PDX model of DLBCL, high-grade B-cell lymphoma (HGBCL, LY2214); format: in vivo, NOD/SCID or BALB/c Nude Mice; details: 30 mg/kg PO QD×21, compared to vehicle
Protocol: as §2

CNC(=O)COc1cc2cc(Nc3nc(N4CCC(O[C@H]5C[C@H](N6CCC(c7ccc8c(c7F)CN(C7CCC(=O)NC7=O)C8=O)CC6)C5)CC4)ncc3Cl)ccc2n(C(C)C)c1=O (stereo partly drawn) [Compound A, 2-({6-[(5-chloro-2-{4-[(1r,3r)-3-{4-[2-(2,6-dioxopiperidin-3-yl)-4-fluoro-1-oxo-2,3-dihydro-1H-isoindol-5-yl]piperidin-1-yl}cyclobutoxy]piperidin-1-yl}pyrimidin-4-yl)amino]-2-oxo-1-(propan-2-yl)-1,2-dihydroquinolin-3-yl}oxy)-N-methylacetamide]
Tumor lysate BCL6 protein level (BCL6 protein [1]): dose-dependent degradation of BCL6 protein
Body weight loss [2]: No significant body weight loss
DLBCL cell growth (antiproliferative effect) (DLBCL-derived cell lines): significant decrease on DLBCL cells growth
Tumor growth (SU-DHL-2): inhibits the tumor growth
Change in mean tumor volume (LY6934): tumor regression
Change in mean tumor volume (LY12962): tumor regressions
BCL6 protein degradation (BCL6 protein [3]; ABC DLBCL cell lines SU-DHL-2, OCI-Ly10, 24 hours (FIG. 2C)): potent BCL6 protein degradation
BCL6 protein degradation (BCL6 protein [3]; GCB DLBCL cell lines Farage, SU-DHL-4, SU-DHL-6, OCI-Ly7, 24 hours (FIG. 2B)): potent BCL6 protein degradation
BCL6 protein degradation (BCL6 protein [3]; OCI-Ly1 cell line, 24-hours treatment, compared to E3-binding deficient analogue (FIG. 2A)): potent BCL6 protein degradation
Change in mean tumor volume (LY3148): tumor regressions
Tumor lysate BCL6 protein level (BCL6 protein [4]): degraded BCL6 protein
Change in mean tumor volume (LY2214): tumor regression
